Measurements taken from patent publication US20260217837A1, “FGFR3 BINDING MOLECULES AND METHODS OF USE THEREOF” (Regeneron Pharmaceuticals, Inc., priority 2023, published 2026).

Assays:
[1] = system: locally advanced or metastatic bladder cancer; conditions: patients who receive cisplatin; Wong & Rosenberg, 2021; cited from earlier work
[2] = system: BaF3 cells expressing the double mutant FGFR3 S249C+V557L; assay: BaF3 cell viability, FGFR3 S249C+V557L; type: cell-based; conditions: 72 hours, FGF1/heparin
Source text: (§1) cDNA expressing FGFR3 mutants (S249C, S248C, Y375C, V555M, V555L, S249C+V555M, or S249C+V555L) were synthesized and cloned into pLVX Lenti-viral vector (Thermo Fisher). Viral particles were generated by lipofectamine transfection of LentiX 293T cells using Lenti-X packaging single shots following manufacturer's protocol (Clontech/Takara) and concentrated using Lenti-X concentrator and titer determined using Lenti-X p24 rapid titer kit (Clontech/Takara). BaF3 cells were transduced with virus at ~0.3 MOI.
(§2) For cell proliferation assays, engineered BaF3/hFGFR3 cells grown in complete medium were washed and plated in IL-3-free culture media±5 μg/ml heparin and 1 nM human FGF1. Cells were plated out at 1×10^5 cells/well into 96-well plates, followed by the addition of 1:3 serially diluted antibodies as indicated in figures. After addition of antibodies, cells were incubated at 37° C. for 72 h followed by the addition of CellTiter-Glo™ (Promega) reagent. The luminescent signal was detected by Envision plate reader (PerkinElmer). Data was analyzed using Prism software (GraphPad). […]

[3] = system: BaF3 cells expressing FGFR3 V557M; assay: BaF3 cell viability, FGFR3 V557M; type: cell-based; conditions: 72 hours, FGF1/heparin
Source text: as §1, §2

[4] = system: BaF3 cells expressing the double mutant FGFR3 S249C+V557M; assay: BaF3 cell viability, FGFR3 S249C+V557M; type: cell-based; conditions: 72 hours, FGF1/heparin
Source text: as §1, §2

[5] = system: BaF3 cells expressing FGFR3 V557L; assay: BaF3 cell viability, FGFR3 V557L; type: cell-based; conditions: 72 hours, FGF1/heparin
Source text: as §1, §2

N.N.[Cl][Pt][Cl] [cisplatin]
median overall survival [1]: approximately 14 months

AZD4547 [reference compound]
growth of BaF3 cells expressing FGFR3 S249C+V557L [2]: ineffective | growth of BaF3 cells expressing FGFR3 V557M [3]: ineffective | growth of BaF3 cells expressing FGFR3 S249C+V557M [4]: ineffective | growth of BaF3 cells expressing FGFR3 V557L [5]: ineffective
